These results are taken from patent US20230285570A1, “THERAPEUTICALLY USEFUL CURE-PRO MOLECULES FOR E3 LIGASE MEDIATED DEGRADATION OF PROTEINS, AND METHODS OF MAKING AND USING THEM” (CORNELL UNIVERSITY, priority 2020, published 2023).

Entries after “also recorded” stand apart in the source; their conditions may differ.

Holding throughout (assay type): cell-based
Assay [1] concerns the target T1, BRD4 (Homo sapiens, UniProt O60885). Nature of the assay: CURE-PRO-mediated BRD4 degradation in HCT116 cells, WES (ProteinSimple). Also noted: endogenous in cells. As to conditions: 1 μM-10 μM each. The protocol:
All cell lines were purchased from ATCC or DSMZ and grown at 37° C. with 5% CO2. Human HeLa cells were cultured in complete growth medium (Dulbecco's modified Eagle's medium (DMEM) supplemented with 10% FBS); MCF7 cells were cultured in complete growth medium (Dulbecco's modified Eagle's medium (DMEM) supplemented with 10% FBS and 0.01 mg/ml human recombinant insulin (Sigma Aldrich); Namalwa and Ramos cells were cultured in complete growth medium (RPMI 1640 medium supplemented with 10% FBS); HCT116 and HT29 cells were cultured in complete growth medium (McCoy's 5a Medium supplemented with 10% FBS). For cellular degradation of BRD4 studies cells were seeded in a 12-well plate at 70-80% confluency, allowed to attach overnight, and incubated with the indicated compounds for the indicated time. When indicated, a 15-minute pretreatment with 10 μM pomalidomide, 10 μM VHL298, 10 μM Nutlin3a, 1 μM MG-132 or 1 μM Carfilzomib was performed before the addition of CURE-PROs. For washout studies, after CURE-PRO treatment, media was aspirated and incubated with complete medium for the indicated time before lysis.
WES Simple analysis was performed on WES system (ProteinSimple-Biotechne) according to the manufacturer's instructions. Total protein concentrations of cell lysates were determined by the Pierce BCA kit (Thermo Fisher). 3 μL of 0.3 μg/μL of the protein lysate was loaded onto a 12- to 230-kDa WES assay plate (ProteinSimple) where 300 nL sample was withdrawn through a capillary, subjected to electrophoretic separation of proteins by size, and followed by the simultaneous, HRP-based detection of proteins using the Anti-Rabbit Detection Module (Proteinsimple: #DM-001). The electropherograms were checked then the automatic peak detection was manually corrected if it was required.
HCT116 cells (3×10^6) were treated for 24 hours with the compounds solubilized in DMSO. Compounds were added at 1 μM-10 μM each. Standardized protein samples were electrophoresed and imaged as described in the WES ProteinSimple section above. FIGS. 59, 60, and 61 depict the concentration-dependence of CURE-PRO-mediated BRD4 degradation using MDM2 ligands.
HCT116 cells (3×10^6) were treated for 24 hours with the compounds solubilized in DMSO. Compounds were added at 1 μM-10 μM each. Standardized protein samples were electrophoresed and imaged as described in the WES ProteinSimple section above. FIGS. 62 and 63 depict the concentration-dependence of CURE-PRO-mediated BRD4 degradation using MDM2 ligands.
HCT116 cells (3×10^6) were treated for 24 hours with the compounds solubilized in DMSO. CURE-PRO monomers were added at 10 μM each and the proteasomal inhibitors at 1 μM. Standardized protein samples were electrophoresed and imaged as described in the WES ProteinSimple section above. FIG. 68 depicts the dependence of the proteasome for CURE-PRO-mediated BRD4 degradation.

Assay [2] deals with T1, BRD4. Nature of the assay: Summary of BRD4 degradation by CURE-PRO pairs, estimated from Western Blot or WES. Also noted: endogenous in cells. The following applies: for Degradation of BRD4, combination with CRBN ligand 8046: Table 1, aryl-boronic acid BRD4 ligand + 8046; for Degradation of BRD4, combination with CRBN ligand 8047: Table 1, aryl-boronic acid BRD4 ligand + 8047; for Degradation of BRD4, combination with CRBN ligand 8066: Table 1, aryl-boronic acid BRD4 ligand + 8066; for Degradation of BRD4, combination with MDM2 ligand 8314: Table 2, aryl-boronic acid BRD4 ligand + 8314. Put shortly: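 Namalwa, Ramos, HeLa, MCF7, HT29 or HCT116 cells treated 24 h with compounds in DMSO; RIPA lysates analysed by Western blot (ECL) or capillary WES immunodetection. Check mark denotes 30% to 70% or higher protein degradation.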

In assay [3] the target is T1, BRD4. The experiment in a line: CURE-PRO-mediated BRD4 degradation in HeLa cells, Western blot. More on the design: endogenous in cells; host or cells: HeLa. The following applies: 24 h; for BRD4 degradation: 10 μM each; for BRD4 expression: BRD monomer alone, HeLa, 1 nM-1 μM. An outline of the steps:
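HeLa cells (2.5×10^6) treated 24 h with DMSO-solubilized compounds, degrader pairs combined 1:1, at 1 nM-1 μM, 1-10 μM, 10 μM or 10 and 100 μM each depending on series. RIPA lysates (10-20 μg protein) run on SDS-PAGE and immunoblotted for BRD4 with ECL detection.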

Assay [4] deals with MV-4-11 cells. Nature of the assay: CellTiter-Glo cell viability, MV-4-11 cells. The protocol: CellTiter-Glo® 2.0 Cell Viability Assay (Promega) was carried out following the manufacturer's recommendations. Cells were seeded at a density of 1000 cells/well in a white 96 well plates (Corning, #3917) in a total volume of 100 μl with respective monomers, combinations of BRD ligands together with E3 ligase ligands or vehicle control treatment. After a 72 h incubation, 100 ul of the CellTiter-Glo® substrate was added per well and luminescence was read on a Spectramax M5 (Molecular Devices). Dose-response curves were generated using Graphpad Prism software.
MV-4-11 cells (5×10^4) were treated for 24 hours with the sample compounds solubilized in DMSO. The compounds were added at 1 nM-100 μM each. Cellular viability was determined using the CellTiter-Glo® Luminescent Cell Viability Assay (Promega) described above. FIGS. 19-22 depict the CURE-PRO-mediated loss of cellular viability for BRD monomers (JQ1 derivatives comprising of catechol linkers), and CRBN ligand, 8049 (pomalidomide derivatives comprising boronic acid linkers) combined in a 1:1 ratio.
MV-4-11 cells (1×10^4) were treated for 72 hours with the compounds solubilized in DMSO. Compounds were added at 10 nM-100 μM each. Cellular viability was determined using the CellTiter-Glo® Luminescent Cell Viability Assay (Promega) described above. FIGS. 47-54 depict the CURE-PRO-mediated loss of cellular viability for BRD monomers (JQ1 derivatives comprising of boronic acid linkers), and CRBN ligands, 8046, 8047 and 8066 (pomalidomide derivatives comprising diol linkers) combined in a 1:1 ratio.

[5] abbreviates: 1:1 with MDM2 ligand 8313, HCT116, 24 h.
[6] abbreviates: 1:1 with MDM2 ligand 8314, HCT116, 24 h.
Where [7] appears, read: co-treated 1:1 with CRBN ligand 8046, HeLa.
[8] abbreviates: co-treated 1:1 with CRBN ligand 8066, HeLa.

In the case of `CCNC(=O)C[C@@H]1N=C(c2ccc(Cl)cc2)c2cc(OCCCCCCNC(=O)c3ccc(B(O)O)cc3)ccc2-n2c(C)nnc21` [BRD-E79, (4-((6-(((4S)-6-(4-chlorophenyl)-4-(2-(ethylamino)-2-oxoethyl)-1-methyl-4H-benzo[f][1,2,4]triazolo[4,3-a][1,4]diazepin-8-yl)oxy)hexyl)carbamoyl)phenyl)boronic acid], the BRD4 degradation entry was “caused BRD4 protein degradation at 1 and 10 μM; also recorded: Degradation of BRD4 is observed” in assay [1] (setting [5]); “no protein loss was observed” in assay [1] (setting [6]); “causes degradation of BRD4; also recorded: Degradation is noted” in assay [3] (setting [7]); “causes degradation of BRD4; also recorded: Degradation is noted” in assay [3] (setting [8]). For the same compound, the “Degradation of BRD4, combination with CRBN ligand 8046” value in assay [2] is reported as “√ (A black check mark indicates efficacy of 30% to 70% or higher protein degradation)”. Also, the “Degradation of BRD4, combination with CRBN ligand 8047” value (“Degradation … with CRBN ligand 8047” below) in assay [2] is reported as “√ (A black check mark indicates efficacy of 30% to 70% or higher protein degradation)”. In addition, the “Degradation of BRD4, combination with CRBN ligand 8066” value in assay [2] is recorded as “√ (A black check mark indicates efficacy of 30% to 70% or higher protein degradation)”. In addition, in assay [2] (Table 2, aryl-boronic acid BRD4 ligand + 8313), the “Degradation of BRD4, combination with MDM2 ligand 8313” value is on record as “√ (A black check mark indicates efficacy of 30% to 70% or higher protein degradation)”.
Take `COc1ccc2c(c1)C(c1ccc(Cl)cc1)=N[C@@H](CC(=O)NCCCCCNC(=O)c1cccc(O)c1O)c1nnc(C)n1-2` [BRD-N8, N-(5-(2-((4S)-6-(4-chlorophenyl)-8-methoxy-1-methyl-4H-benzo[f][1,2,4]triazolo[4,3-a][1,4]diazepin-4-yl)acetamido)pentyl)-2,3-dihydroxybenzamide]: in assay [4] (co-dosed 1:1 with CRBN ligand 8049, MV-4-11, 24 h, 1 nM-100 μM each), the “loss of cellular viability (toxicity)” value was “concentration-dependent loss in cellular viability; also recorded: increased toxicity”.
As to `CCNC(=O)C[C@@H]1N=C(c2ccc(Cl)cc2)c2cc(OCCNC(=O)c3cccc(B(O)O)c3)ccc2-n2c(C)nnc21` [BRD-E21, (3-((2-(((4S)-6-(4-chlorophenyl)-4-(2-(ethylamino)-2-oxoethyl)-1-methyl-4H-benzo[f][1,2,4]triazolo[4,3-a][1,4]diazepin-8-yl)oxy)ethyl)carbamoyl)phenyl)boronic acid], the BRD4 degradation result in assay [1] (setting [5]) is on record as “had no effect on BRD4 protein levels”. The BRD4 degradation entry in assay [1] (setting [6]) is recorded as “caused partial loss of the BRD4 protein; also recorded: Degradation is observed”. In addition, in assay [2], the “Degradation … with CRBN ligand 8047” value is given as “√ (A black check mark indicates efficacy of 30% to 70% or higher protein degradation)” and the “Degradation of BRD4, combination with MDM2 ligand 8314” value (“Degradation … with MDM2 ligand 8314” for short) is “√ (A black check mark indicates efficacy of 30% to 70% or higher protein degradation)”. Moreover, in assay [3] (1:1 with CRBN ligand 8047, HeLa, 1 nM-1 μM each), the “concentration from which BRD4 degradation is observed” value was ≥ 10 nM. Further, in assay [3], the BRD4 expression result is reported as “no change in expression is observed”.
As for `COc1ccc2c(c1)C(c1ccc(Cl)cc1)=N[C@@H](CC(=O)NCCCCCNC(=O)c1cccc(B(O)O)c1)c1nnc(C)n1-2` [BRD-E8], the BRD4 degradation result is “had no effect on BRD4 protein levels” in assay [1] (setting [5]), “caused partial loss of the BRD4 protein; also recorded: Degradation is observed” in assay [1] (setting [6]), “causes degradation of BRD4; also recorded: Degradation is noted” in assay [3] (setting [7]) and “causes degradation of BRD4; also recorded: Degradation is noted” in assay [3] (setting [8]). In assay [2], the “Degradation of BRD4, combination with CRBN ligand 8046” value is “√ (A black check mark indicates efficacy of 30% to 70% or higher protein degradation)”. Also, the “Degradation of BRD4, combination with CRBN ligand 8066” value in assay [2] is recorded as “√ (A black check mark indicates efficacy of 30% to 70% or higher protein degradation)”. Further, the “Degradation … with MDM2 ligand 8314” value in assay [2] is listed as “√ (A black check mark indicates efficacy of 30% to 70% or higher protein degradation)”. In assay [3] (1:1 with CRBN ligand 8046, HeLa, 1 nM-1 μM each), the “concentration-dependent BRD4 degradation” value was “Degradation is observed at 100 nM and 1 μM”. The BRD4 expression entry in assay [3] was “no change in expression is observed”.
As to `COc1ccc2c(c1)C(c1ccc(Cl)cc1)=N[C@@H](CC(=O)NCCc1ccc(B(O)O)cc1)c1nnc(C)n1-2` [BRD-E14, (4-(2-(2-((4S)-6-(4-chlorophenyl)-8-methoxy-1-methyl-4H-benzo[f][1,2,4]triazolo[4,3-a][1,4]diazepin-4-yl)acetamido)ethyl)phenyl)boronic acid], the BRD4 degradation result in assay [1] (setting [5]) is on record as “had no effect on BRD4 protein levels”; in assay [1] (setting [6]), “caused partial loss of the BRD4 protein; also recorded: Degradation is observed”; in assay [3] (co-treated 1:1 with CRBN ligand 8047, HeLa), “causes degradation of BRD4; also recorded: Degradation is noted”. In addition, in assay [2], the “Degradation … with CRBN ligand 8047” value is recorded as “√ (A black check mark indicates efficacy of 30% to 70% or higher protein degradation)”. Besides, the “Degradation … with MDM2 ligand 8314” value in assay [2] is “√ (A black check mark indicates efficacy of 30% to 70% or higher protein degradation)”. Moreover, the “Degradation of BRD4, combination with VHL ligand 8305” value in assay [2] (Table 3, aryl-boronic acid BRD4 ligand + 8305) is listed as “√ (A black check mark indicates efficacy of 30% to 70% or higher protein degradation)”.
Consider `COc1ccc2c(c1)C(c1ccc(Cl)cc1)=N[C@@H](CC(=O)Nc1cccc(B(O)O)c1)c1nnc(C)n1-2` [BRD-E73, (3-(2-((4S)-6-(4-chlorophenyl)-8-methoxy-1-methyl-4H-benzo[f][1,2,4]triazolo[4,3-a][1,4]diazepin-4-yl)acetamido)phenyl)boronic acid], for which the “loss of cellular viability (toxicity) versus monomers alone” value in assay [4] (cotreated 1:1 with each of CRBN ligands 8046, 8047 and 8066, MV-4-11, 72 h, 10 nM-100 μM) is “reduced viability; also recorded: increased toxicity”.
